Patent US20230085307A1, “PYRIDAZINONE COMPOUND AND HERBICIDE” (NISSAN CHEMICAL CORPORATION, priority 2019, published 2023)

Columns and labels:
lambsquarters [1] = experiment: Test Example 4: herbicidal effect by soil treatment (Table 19, symbol O); format: in vivo, lambsquarters (Chenopodium album); conditions: amount of applied herbicide 320 g/ha
How it was run: (§1)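 Herbicidal effect was rated 3 weeks after treatment, using the scoring criteria of an earlier test. The compound, formulated as an emulsion and diluted in water to a set herbicide amount, had been sprayed uniformly on soil over freshly sown seeds. Growth took place in a greenhouse at 25° C. to 30° C.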

redroot pigweed [2] = experiment: Test Example 5: herbicidal effect by foliage application, plastic box (Table 20, symbol N); format: in vivo, redroot pigweed (Amaranthus retroflexus); conditions: foliage application, 320 g/ha, three weeks after application
How it was run: (§2)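 Foliar spray test: emulsion formulation diluted in water to a set application rate, sprayed onto 14-day-old plants raised in diluvial soil at 25° C to 30° C under glass. Both herbicidal effect and crop effect rated visually three weeks later.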

barnyard grass [3] = experiment: Test Example 4: herbicidal effect by soil treatment (Table 19, symbol H); format: in vivo, barnyard grass (Echinochloa crus-galli); conditions: amount of applied herbicide 320 g/ha
How it was run: as §1

Italian ryegrass [4] = experiment: Test Example 5: herbicidal effect by foliage application, plastic box (Table 20, symbol K); format: in vivo, Italian ryegrass (Lolium multiflorum); conditions: foliage application, 320 g/ha, three weeks after application
How it was run: as §2

wild oat [5] = experiment: Test Example 5: herbicidal effect by foliage application, plastic box (Table 20, symbol I); format: in vivo, wild oat (Avena fatua); conditions: foliage application, 320 g/ha, three weeks after application
How it was run: as §2

blackgrass [6] = experiment: Test Example 4: herbicidal effect by soil treatment (Table 19, symbol J); format: in vivo, blackgrass (Alopecurus myosuroides); conditions: amount of applied herbicide 320 g/ha
How it was run: as §1

velvetleaf [7] = experiment: Test Example 4: herbicidal effect by soil treatment (Table 19, symbol M); format: in vivo, velvetleaf (Abutilon theophrasti); conditions: amount of applied herbicide 320 g/ha
How it was run: as §1

late watergrass = experiment: Test Example 1: herbicidal activity, application before weed generation under submerged conditions (Table 16, symbol A); format: in vivo, late watergrass (Echinochloa oryzicola); conditions: amount of applied herbicide 320 g/ha
How it was run: (§3)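 Submerged Wagner pots (alluvial soil, 4 cm water) sown with weed seeds and planted with 2.5-leaf rice seedlings; emulsifiable concentrate diluted in water applied to water surface on sowing day. Held in greenhouse at 25-30 °C; injury scored 0-5 by herbicidal rate after three weeks.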

velvetleaf [8] = experiment: Test Example 5: herbicidal effect by foliage application, plastic box (Table 20, symbol M); format: in vivo, velvetleaf (Abutilon theophrasti); conditions: foliage application, 320 g/ha, three weeks after application
How it was run: as §2

rice flat sedge = experiment: Test Example 3: herbicidal effect by foliage application, Wagner pot (Table 18, symbol E); format: in vivo, rice flat sedge (Cyperus iria); conditions: 320 g/ha
How it was run: (§4)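 Plants were sown in alluvial soil held under 0.1–0.5 cm standing water and grown 14 days in a greenhouse at 25–30 °C. An emulsifiable formulation, water-diluted to the set dose, was then sprayed onto the foliage, and effects were scored three weeks later using previously defined criteria.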

Japanese bulrush = experiment: Test Example 1: herbicidal activity, application before weed generation under submerged conditions (Table 16, symbol B); format: in vivo, Japanese bulrush (Schoenoplectus juncoides); conditions: amount of applied herbicide 320 g/ha
How it was run: as §3

blackgrass [9] = experiment: Test Example 5: herbicidal effect by foliage application, plastic box (Table 20, symbol J); format: in vivo, blackgrass (Alopecurus myosuroides); conditions: foliage application, 320 g/ha, three weeks after application
How it was run: as §2

redroot pigweed [10] = experiment: Test Example 4: herbicidal effect by soil treatment (Table 19, symbol N); format: in vivo, redroot pigweed (Amaranthus retroflexus); conditions: amount of applied herbicide 320 g/ha
How it was run: as §1

southern crabgrass [11] = experiment: Test Example 5: herbicidal effect by foliage application, plastic box (Table 20, symbol F); format: in vivo, southern crabgrass (Digitaria ciliaris); conditions: foliage application, 320 g/ha, three weeks after application
How it was run: as §2

Italian ryegrass [12] = experiment: Test Example 4: herbicidal effect by soil treatment (Table 19, symbol K); format: in vivo, Italian ryegrass (Lolium multiflorum); conditions: amount of applied herbicide 320 g/ha
How it was run: as §1

green foxtail [13] = experiment: Test Example 4: herbicidal effect by soil treatment (Table 19, symbol G); format: in vivo, green foxtail (Setaria viridis); conditions: amount of applied herbicide 320 g/ha
How it was run: as §1

lambsquarters [14] = experiment: Test Example 5: herbicidal effect by foliage application, plastic box (Table 20, symbol O); format: in vivo, lambsquarters (Chenopodium album); conditions: foliage application, 320 g/ha, three weeks after application
How it was run: as §2

green foxtail [15] = experiment: Test Example 5: herbicidal effect by foliage application, plastic box (Table 20, symbol G); format: in vivo, green foxtail (Setaria viridis); conditions: foliage application, 320 g/ha, three weeks after application
How it was run: as §2

barnyard grass [16] = experiment: Test Example 3: herbicidal effect by foliage application, Wagner pot (Table 18, symbol H); format: in vivo, barnyard grass (Echinochloa crus-galli); conditions: 320 g/ha
How it was run: as §4

wild oat [17] = experiment: Test Example 4: herbicidal effect by soil treatment (Table 19, symbol I); format: in vivo, wild oat (Avena fatua); conditions: amount of applied herbicide 320 g/ha
How it was run: as §1

Chinese sprangletop = experiment: Test Example 3: herbicidal effect by foliage application, Wagner pot (Table 18, symbol D); format: in vivo, chinese sprangletop (Leptochloa chinensis); conditions: 320 g/ha
How it was run: as §4

chickweed [18] = experiment: Test Example 4: herbicidal effect by soil treatment (Table 19, symbol P); format: in vivo, common chickweed (Stellaria media); conditions: amount of applied herbicide 320 g/ha
How it was run: as §1

barnyard grass [19] = experiment: Test Example 5: herbicidal effect by foliage application, plastic box (Table 20, symbol H); format: in vivo, barnyard grass (Echinochloa crus-galli); conditions: foliage application, 320 g/ha, three weeks after application
How it was run: as §2

persian speedwell [20] = experiment: Test Example 4: herbicidal effect by soil treatment (Table 19, symbol R); format: in vivo, Persian speedwell (Veronica persica); conditions: amount of applied herbicide 320 g/ha
How it was run: as §1

southern crabgrass [21] = experiment: Test Example 4: herbicidal effect by soil treatment (Table 19, symbol F); format: in vivo, southern crabgrass (Digitaria ciliaris); conditions: amount of applied herbicide 320 g/ha
How it was run: as §1

windgrass [22] = experiment: Test Example 4: herbicidal effect by soil treatment (Table 19, symbol L); format: in vivo, windgrass (Apera spica-venti); conditions: amount of applied herbicide 320 g/ha
How it was run: as §1

false cleavers [23] = experiment: Test Example 5: herbicidal effect by foliage application, plastic box (Table 20, symbol Q); format: in vivo, false cleavers (Galium spurium); conditions: foliage application, 320 g/ha, three weeks after application
How it was run: as §2

persian speedwell [24] = experiment: Test Example 5: herbicidal effect by foliage application, plastic box (Table 20, symbol R); format: in vivo, Persian speedwell (Veronica persica); conditions: foliage application, 320 g/ha, three weeks after application
How it was run: as §2

false cleavers [25] = experiment: Test Example 4: herbicidal effect by soil treatment (Table 19, symbol Q); format: in vivo, false cleavers (Galium spurium); conditions: amount of applied herbicide 320 g/ha
How it was run: as §1

chickweed [26] = experiment: Test Example 5: herbicidal effect by foliage application, plastic box (Table 20, symbol P); format: in vivo, common chickweed (Stellaria media); conditions: foliage application, 320 g/ha, three weeks after application
How it was run: as §2

windgrass [27] = experiment: Test Example 5: herbicidal effect by foliage application, plastic box (Table 20, symbol L); format: in vivo, windgrass (Apera spica-venti); conditions: foliage application, 320 g/ha, three weeks after application
How it was run: as §2

oval-leafed pondweed = experiment: Test Example 1: herbicidal activity, application before weed generation under submerged conditions (Table 16, symbol C); format: in vivo, oval-leafed pondweed (Monochoria vaginalis); conditions: amount of applied herbicide 320 g/ha
How it was run: as §3

CCCC(=O)Oc1c(C)nn(C)c(=O)c1-c1c(-c2ccc(F)cc2OC)sc2cc(Cl)ccc12 [3-044]
O: lambsquarters, herbicidal effect grade (lambsquarters [1]): 4 (Herbicidal rate of 70% or more and less than 90%) | N: redroot pigweed, herbicidal effect grade (redroot pigweed [2]): 3 (Herbicidal rate of 40% or more and less than 70%) | H: barnyard grass, herbicidal effect grade (barnyard grass [3]): 3 (Herbicidal rate of 40% or more and less than 70%) | K: Italian ryegrass, herbicidal effect grade (Italian ryegrass [4]): 0 (Herbicidal rate of 5% or less (almost no effect)) | I: wild oat, herbicidal effect grade (wild oat [5]): 4 (Herbicidal rate of 70% or more and less than 90%) | J: blackgrass, herbicidal effect grade (blackgrass [6]): 0 (Herbicidal rate of 5% or less (almost no effect)) | M: velvetleaf, herbicidal effect grade (velvetleaf [7]): 2 (Herbicidal rate of 20% or more and less than 40%) | Herbicidal effect, A: late watergrass (late watergrass): 3 (Herbicidal rate of 40% or more and less than 70%) | M: velvetleaf, herbicidal effect grade (velvetleaf [8]): 4 (Herbicidal rate of 70% or more and less than 90%) | herbicidal effect on rice flat sedge (E) (rice flat sedge): 3 (Herbicidal rate of 40% or more and less than 70%) | Herbicidal effect, B: Japanese bulrush (Japanese bulrush): 0 (Herbicidal rate of 5% or less (almost no effect)) | J: blackgrass, herbicidal effect grade (blackgrass [9]): 5 (Herbicidal rate of 90% or more (almost completely withered)) | N: redroot pigweed, herbicidal effect grade (redroot pigweed [10]): 4 (Herbicidal rate of 70% or more and less than 90%) | F: southern crabgrass, herbicidal effect grade (southern crabgrass [11]): 3 (Herbicidal rate of 40% or more and less than 70%) | K: Italian ryegrass, herbicidal effect grade (Italian ryegrass [12]): 0 (Herbicidal rate of 5% or less (almost no effect)) | G: green foxtail, herbicidal effect grade (green foxtail [13]): 1 (Herbicidal rate of 5% or more and less than 20%) | O: lambsquarters, herbicidal effect grade (lambsquarters [14]): 3 (Herbicidal rate of 40% or more and less than 70%) | G: green foxtail, herbicidal effect grade (green foxtail [15]): 4 (Herbicidal rate of 70% or more and less than 90%) | herbicidal effect on barnyard grass (H) (barnyard grass [16]): 5 (Herbicidal rate of 90% or more (almost completely withered)) | I: wild oat, herbicidal effect grade (wild oat [17]): 0 (Herbicidal rate of 5% or less (almost no effect)) | herbicidal effect on Chinese sprangletop (D) (Chinese sprangletop): 0 (Herbicidal rate of 5% or less (almost no effect)) | P: chickweed, herbicidal effect grade (chickweed [18]): 4 (Herbicidal rate of 70% or more and less than 90%) | H: barnyard grass, herbicidal effect grade (barnyard grass [19]): 5 (Herbicidal rate of 90% or more (almost completely withered)) | R: persian speedwell, herbicidal effect grade (persian speedwell [20]): 3 (Herbicidal rate of 40% or more and less than 70%) | F: southern crabgrass, herbicidal effect grade (southern crabgrass [21]): 1 (Herbicidal rate of 5% or more and less than 20%) | L: windgrass, herbicidal effect grade (windgrass [22]): 3 (Herbicidal rate of 40% or more and less than 70%) | Q: false cleavers, herbicidal effect grade (false cleavers [23]): 4 (Herbicidal rate of 70% or more and less than 90%) | R: persian speedwell, herbicidal effect grade (persian speedwell [24]): 3 (Herbicidal rate of 40% or more and less than 70%) | Q: false cleavers, herbicidal effect grade (false cleavers [25]): 4 (Herbicidal rate of 70% or more and less than 90%) | P: chickweed, herbicidal effect grade (chickweed [26]): 5 (Herbicidal rate of 90% or more (almost completely withered)) | L: windgrass, herbicidal effect grade (windgrass [27]): 5 (Herbicidal rate of 90% or more (almost completely withered)) | Herbicidal effect, C: oval-leafed pondweed (oval-leafed pondweed): 0 (Herbicidal rate of 5% or less (almost no effect))
